Data on 1 compound can be found in PMC8434109, “Synthesis and Biological Activity of a Cytostatic Inhibitor of MLLr Leukemia Targeting the DOT1L Protein” (Molecules, 2021).

The target in one test is DNMT3A (Homo sapiens, UniProt Q9Y6K1). The experiment in a line: hDNMT3Acat activity assay. The following applies: substrate DNA, read-out: Enzyme % Activity (relative to DMSO controls). Format: biochemical. The method, then: (§1) Table S1: Selectivity of the compound on a HMT panel (by Reaction Biology, USA) and on hDNMT3Acat (as described in Ceccaldi
Sequence of DNMT3A (Q9Y6K1 634-912 limits assumed): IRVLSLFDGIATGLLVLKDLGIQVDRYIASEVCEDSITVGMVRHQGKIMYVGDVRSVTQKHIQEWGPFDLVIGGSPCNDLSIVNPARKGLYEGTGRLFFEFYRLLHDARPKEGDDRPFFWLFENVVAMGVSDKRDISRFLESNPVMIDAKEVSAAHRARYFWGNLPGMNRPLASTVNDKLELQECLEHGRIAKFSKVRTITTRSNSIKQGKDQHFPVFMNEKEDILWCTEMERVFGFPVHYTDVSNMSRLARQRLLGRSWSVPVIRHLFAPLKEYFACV
(§2) Enzyme % Activity (relative to DMSO
(§3) Testing Concentration 10µM
(§4) Methyltransferase: Substrate: Activity enzyme in %

For another test, the system named is KOPN8 cells (MLL-ENL). In words: Cell proliferation, trypan blue counting. The test is classed as cell-based. The following applies: Homo sapiens, KOPN-8, 360 h, 15-day treatment, read-out: EC50 of the proliferation inhibition. The method, then:
(§5) For assessment of cell proliferation and viability in human cell lines, exponentially growing cells were placed, in triplicate, in 96-well plates at a density of 35,000 cells/well at a final volume of 100 µL. […] The viable cell number was determined every 3–4 days for up to 15 days to 21 days using trypan blue counting using Cellometer Disposable Counting Chambers for the Cellometer Mini Automated Cell Counter.

Another test relates to NOMO-1 cells (MLL-AF9). In words: Cell proliferation, trypan blue counting. The following applies: Homo sapiens, 360 h; NOMO-1 (AF9), 15-day treatment; read-out: EC50 of the proliferation inhibition. Format: cell-based. The method, then: as §5
The subject of test [1] is HOXA9 and MEIS1 expression in MV4-11, MOLM13 and KOPN8 cells. The experiment in a line: Quantitative real-time PCR of MLL target genes. Format: cell-based, human. Particulars: 0.1, 0.32, 1 and 3.2 µM; 6 days MV4-11 and MOLM13, 10 days KOPN8. The method, then:
We then investigated the impact of the inhibition of H3K79me2 in MLLr cells on the expression of the pro-leukemic genes, HOXA9 and MEIS1. These are MLL target genes and have been characterized for being activated by the aberrant H3K79 methylation by DOT1L recruited at these genes by the MLL-fusion proteins and inhibited by DOTL1 inhibitors. […] The difference in kinetics is related to the doubling time of the cells (Table 1), indeed, we measured that the doubling time of MV4-11 is 12 h while the doubling time for MOLM-13 is 22 h.
The non-adherent cell lines MV4-11, MOLM-13, and KOPN8 exponentially growing cells were plated in 12-well plates (1 plate for each experiment) at a rate of 500,000 cells per well at a final volume of 2 mL. The cells were incubated in the presence of increasing inhibitor concentrations (0.1, 0.32, 1, 3.2, 10 µM). […]
Total RNA was isolated from the cell pellet of at least 1 × 10^6 cells using the RNAeasy mini kit (Cat No.: 74106, Qiagen) according to the manufacturer’s instructions. […] Complementary DNA (cDNA) was diluted at 1:10 and used as a template in quantitative real-time PCR (RT-qPCR) using the SYBR Green Master Kit (ref. 047516001, Roche, Boulogne-Billancourt, France) and LightCycler®480 (Roche, Boulogne-Billancourt, France) System according to the manufacturer’s instructions. […]
(Quantitative PCR measures a nucleic acid by following its amplification.)

For the next test, the target named is T1, SMYD2 (Homo sapiens, UniProt Q9NRG4).
T1 construct: purchased Reaction Biology
T1 sequence (Q9NRG4 whole entry): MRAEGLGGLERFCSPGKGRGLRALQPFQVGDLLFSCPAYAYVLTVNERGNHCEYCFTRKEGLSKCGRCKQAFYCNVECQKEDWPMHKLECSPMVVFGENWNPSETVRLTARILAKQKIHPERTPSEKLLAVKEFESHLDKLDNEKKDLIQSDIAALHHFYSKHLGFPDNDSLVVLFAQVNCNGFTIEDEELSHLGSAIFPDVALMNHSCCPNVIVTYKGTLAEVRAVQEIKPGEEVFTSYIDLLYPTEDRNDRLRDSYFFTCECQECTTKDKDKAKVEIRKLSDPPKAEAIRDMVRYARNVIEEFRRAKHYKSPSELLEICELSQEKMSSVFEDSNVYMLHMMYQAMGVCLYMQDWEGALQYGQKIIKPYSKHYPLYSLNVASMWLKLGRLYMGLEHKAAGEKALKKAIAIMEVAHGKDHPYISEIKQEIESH
The experiment in a line: HMT selectivity panel (Reaction Biology). Format: biochemical. The following applies: substrate Histone H4, read-out: Enzyme % Activity (relative to DMSO controls). The method, then:
as §1, §2, §3, §4

In another test the target is T2, PRMT4 (Homo sapiens, UniProt Q86X55).
T2 construct: purchased Reaction Biology
T2 sequence (Q86X55 1-608): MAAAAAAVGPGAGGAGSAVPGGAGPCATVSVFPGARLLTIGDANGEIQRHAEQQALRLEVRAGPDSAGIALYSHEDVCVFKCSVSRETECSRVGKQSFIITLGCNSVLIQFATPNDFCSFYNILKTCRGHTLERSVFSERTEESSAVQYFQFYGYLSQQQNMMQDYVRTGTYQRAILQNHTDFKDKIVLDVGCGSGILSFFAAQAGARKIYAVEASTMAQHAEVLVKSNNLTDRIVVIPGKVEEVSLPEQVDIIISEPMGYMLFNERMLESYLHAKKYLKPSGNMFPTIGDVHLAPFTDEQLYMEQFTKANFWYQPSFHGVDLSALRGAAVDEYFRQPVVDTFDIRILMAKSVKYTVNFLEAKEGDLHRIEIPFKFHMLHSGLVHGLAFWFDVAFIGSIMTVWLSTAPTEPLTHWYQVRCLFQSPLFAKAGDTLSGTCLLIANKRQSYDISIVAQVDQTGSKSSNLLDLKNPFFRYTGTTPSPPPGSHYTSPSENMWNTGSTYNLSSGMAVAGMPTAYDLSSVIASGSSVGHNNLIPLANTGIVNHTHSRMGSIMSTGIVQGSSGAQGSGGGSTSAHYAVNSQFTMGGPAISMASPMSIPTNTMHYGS
In words: HMT selectivity panel (Reaction Biology). Format: biochemical. The following applies: substrate Histone H3, read-out: Enzyme % Activity (relative to DMSO controls). The method, then:
as §1, §2, §3, §4

Take `CC(C)[C@H](CCCNC(=O)Nc1ccc(C(C)(C)C)cc1)N[C@H]1C[C@@H](n2cnc3c(N)ncnc32)[C@H](O)[C@@H]1O` [Dia2, 1-((S)-4-(((1S,2R,3S,4R)-4-(6-amino-9H-purin-9-yl)-2,3-dihydroxycyclopentyl)amino)-5-methylhexyl)-3-(4-(tert-butyl)phenyl)urea]: the remaining activity at 10 µM was determined as 96 ± 2% at DNMT3A, 92 ± 1% on SMYD2 and 92 ± 1% on PRMT4. Besides, the values for the EC50 with KOPN8 cells (MLL-ENL) and in the test on NOMO-1 cells (MLL-AF9) were 63 ± 2 nM and 660 ± 20 nM, respectively. In test [1], the “MEIS1 and HOXA9 expression” value is reported as “decrease in a dose-dependent manner”.
